What was measured:
[1] = tested on: endothelial colony forming cells (ECFCs); assay: ECFC seeding on modified polystyrene surfaces under static conditions; format: cell-based, human; settings: vs unmodified aminated polystyrene surfaces
Text: Cells were stained for F-actin (red) and DAPI (blue). Images were used to quantify cell number and surface area per cell. Unmodified=aminated polystyrene surfaces without further modifications. **p<0.01, *p<0.05 with N=3 experimental replicas.
To test whether the bifunctional surfaces can impart two significant effects on cells of interests, ECFCs derived from human peripheral blood were either seeded on the modified surfaces under static conditions or flown over the surfaces in a perfusion loop under 1 dyn/cm^2 wall shear stress. […] The two molecules were mixed together at the center point concentrations of the previously described surface model.

[2] = ELISA on L605 CoCr substrates modified with peptides and antibodies; settings: dark, ambient conditions, covalent peptide grafting vs adsorption
Protocol: (A) Without S-SMPB, peptides adsorb onto L605 which can change antibody orientation on surfaces. (B) 12-well plate with CoCr samples at the end of the ELISA. For custom ELISAs, RGD-TAMRA was detected using anti Rhodamine followed by HRP-labelled secondary antibodies. Anti CD309 was detected using an HRP-labelled F(ab′)2 secondary antibody on a separate set of samples. HRP activity was quantified by measuring A450 of supernatant collected after 30 min incubation with TMB substrate+addition of stop solution. […] N=3 L605 samples except G-I (N=9 images).

[3] = ELISA of functionalized CoCr surfaces after gamma-irradiation; format: physicochemical; settings: two one-side t-test, 15% difference considered practically equivalent
Text: (A) Principle of the ELISA method used to detect immobilized antibodies via horseradish peroxidase (HRP) conjugated secondary antibodies. (B) ELISA method used to detect immobilized RGD-TAMRA peptides via primary anti rhodamine antibodies followed by HRP conjugated secondary antibodies.

HUVEC cells = assay: HUVEC seeding on Protein G / anti-CD144 / RGD-TAMRA polystyrene well plate; format: cell-based, human; settings: 3 h shaker incubation; for HUVEC attachment to the surface: serum free medium
Protocol: A 6 well plate was seeded with the following conditions in each well (W1-W6):
The functionalized surface was rinsed with phosphate buffer saline (PBS) and […]. HUVEC cells were used and were seeded in each well in serum free medium at a concentration of 19,000 cells/mL. The plate was incubated for 3 hours on an incubation shaker then imaged under the microscope. The plate were left to incubate for another 21 h (total 24 h) at 37° C. 5% CO2 and imaged again.

ECFCs = assay: Surface endothelialization of functionalized CoCr vascular stents in a perfusion model; format: cell-based, human; settings: flow
Text: (A) Representative fluorescence images of ECFCs on the surface of modified stents (after plasma amination) and an unmodified control after 2 and half hours of circulating ECFCs over the stents in a perfusion model at 1 dyn/cm^2 wall shear stress. ECFCs were stained for F-actin (red) and nuclei (blue). Phase contrast images show the corresponding stent structure. Flow direction was from right to left. (B) Quantification of cell adhesion parameters from the fluorescence images. *P<0.05 and **P<0.01 with N=3 experimental replicas from different ECFC donors.
As encompassed herein, the modifications can be applied to different aminated substrates—as shown on polystyrene (FIGS. 4-13) and on cobalt-chromium (CoCr) (FIGS. 16-18). The modifications can be applied to different geometries while retaining the benefits observed on flat substrates.

Row | Substance | surface area of the ECFCs (cell spreading) [1] | surface area of the ECFCs (cell spreading) ([1]; listed as RGD peptides) | ELISA signal after 28d storage [2] | ELISA signal after gamma-irradiation [3] | HUVEC attachment to the surface (HUVEC cells) | cell spreading on CoCr stents (ECFCs) | HUVEC spreading (HUVEC cells)
1 | CGK(PEG3-TAMRA)GGRGDS-NH2 [RGD-TAMRA] | significantly higher than the controls | increase cell spreading | significantly higher | practically equivalent | strongly attach | higher cell spreading | 
2 | collagen |  |  |  |  | strongly attach |  | spread more

— US20230263944A1, “DUAL FUNCTION SURFACE FOR CELL CAPTURE AND SPREADING” (THE ROYAL INSTITUTION FOR THE ADVANCEMENT OF …, priority 2020, published 2023)
